Source: ChEMBL document CHEMBL1150532, “Syntheses and antifilarial profile of 5-amino and 5,8-diamino-isoquinoline derivatives: A new class of antifilarial agents” (1996)

Assays:
Type in all cases: functional
[1] = system: Acanthocheilonema viteae; assay: Antifilarial activity was measured by percent sterilization of A. viteae at dose 50 mg/kg *5days (i.p.); settings: route intraperitoneal
[2] = system: Acanthocheilonema viteae; assay: In vitro inhibition of glucose uptake by Acanthocheilonema viteae at concentration 1.0 uM
[3] = system: Acanthocheilonema viteae; assay: In vitro inhibition of Tubulin content in worms at concentration 1.0 uM
[4] = system: Mastomys natalensis; assay: Compound was evaluated in vivo for microfilaricidal activity against Acanthocheilonema viteae infection in Mastomys natalensis; 0 represents inactive
[5] = system: Mastomys natalensis; assay: Compound was evaluated in vivo for microfilaricidal activity against Acanthocheilonema viteae infection in Mastomys natalensis at dose 50 mg/kg/5days (i.p.); 0 represents inactive; settings: route intraperitoneal
[6] = system: Acanthocheilonema viteae; assay: In vitro increase in lactate production at concentration 1.0 uM
[7] = system: Acanthocheilonema viteae; assay: In vitro inhibition of ATP content in worms at concentration 1.0 uM
[8] = system: Acanthocheilonema viteae; assay: Antifilarial activity was measured by percent sterilization of A. viteae at dose 50 mg/kg *5days (i.p.); 0 represents inactive; settings: route intraperitoneal
[9] = system: Mastomys natalensis; assay: Compound was evaluated in vivo for microfilaricidal activity against Acanthocheilonema viteae infection in Mastomys natalensis at dose 50 mg/kg *5days (i.p.); settings: route intraperitoneal
[10] = system: Mastomys natalensis; assay: Compound was evaluated in vivo for microfilaricidal activity against Acanthocheilonema viteae infection in Mastomys natalensis at dose 50 mg/kg/5days (i.p.); settings: route intraperitoneal
[11] = system: Mastomys natalensis; assay: Compound was evaluated in vivo for microfilaricidal activity against Acanthocheilonema viteae infection in Mastomys natalensis
[12] = system: Acanthocheilonema viteae; assay: Antifilarial activity was measured by percent sterilization of A. viteae at dose 50 mg/kg/5days (i.p.); 0 represents inactive; settings: route intraperitoneal
[13] = system: Mastomys natalensis; assay: Compound was evaluated in vivo for microfilaricidal activity against Acanthocheilonema viteae infection in Mastomys natalensis at dose 350 mg/kg/5 days (i.p.); settings: route intraperitoneal

Compound	Sterility [1]	Glucose uptake [2]	Tubulin content [3]	Activity [4]	Activity [5]	Lactate production [6]	ATP content [7]	Sterility [8]	Activity [9]	Activity [10]	Activity [11]	Sterility [12]	Activity [13]
OC1CC1Nc1cccc2cnccc12 (stereo unspecified)	31%	6.67 µM/mg	70.2 pmol/mg	0	0	7.42 µM/mg	108 pmol/mg	–	–	–	–	–	–
O=[N+]([O-])c1ccc(N2CCOCC2)c2ccncc12	–	6.15 µM/mg	38.5 pmol/mg	0	–	7.19 µM/mg	39.1 pmol/mg	0%	81	–	–	–	–
O=C1CN(c2cccc3cnccc23)C2CC2O1 (stereo unspecified)	–	6.09 µM/mg	35.4 pmol/mg	–	–	6.42 µM/mg	74.2 pmol/mg	0%	–	34	0	–	–
Clc1ccc2c(Nc3ccc(N4CCOCC4)c4ccncc34)ccnc2c1	–	6.26 µM/mg	45.1 pmol/mg	–	–	7.3 µM/mg	37.9 pmol/mg	–	–	76	60	0%	–
CCN(CC)C(=O)N1CCN(C)CC1.O=C(O)CC(O)(CC(=O)O)C(=O)O [DIETHYLCARBAMAZINE CITRATE]	–	–	–	–	0	–	–	–	–	–	–	0%	90
